From publication doi:10.1101/2023.12.06.570349v1 (biorxiv, 2023)

Key:
H3R-365 [1] = molecular target: T1, H3R-365 (Homo sapiens, UniProt Q9Y5N1); experiment: cell-based; set-up: species or system HEK293-EPAC stably expressing H3R isoform; details: HEK293-EPAC stably expressing H3R isoform, read-out: H3R-365 α
H3R-453 [2] = molecular target: T2, H3R-453 (Homo sapiens, UniProt Q9Y5N1)
H3R-415 [3] = molecular target: T3, H3R-415 (Homo sapiens, UniProt Q9Y5N1); experiment: biochemical
H3R-373 [4] = molecular target: T4, H3R-373 (Homo sapiens, UniProt Q9Y5N1, INS445KMKKKTCL); experiment: cell-based; set-up: species or system HEK293-EPAC stably expressing H3R isoform; details: HEK293-EPAC stably expressing H3R isoform, read-out: H3R-373 α
H3R-453 [5] = molecular target: T2, H3R-453; experiment: cell-based; set-up: species or system HEK293-EPAC stably expressing H3R isoform; details: HEK293-EPAC stably expressing H3R isoform, read-out: H3R-453 α
H3R-445 [6] = molecular target: T5, H3R-445 (Homo sapiens, UniProt Q9Y5N1); experiment: biochemical
H3R-413 [7] = molecular target: T6, H3R-413 (Homo sapiens, UniProt Q9Y5N1, DEL274-305); experiment: biochemical
H3R-445 [8] = molecular target: T5, H3R-445; experiment: cell-based; set-up: species or system HEK293-EPAC stably expressing H3R isoform; details: HEK293-EPAC stably expressing H3R isoform, read-out: H3R-445 α
H3R-413 [9] = molecular target: T6, H3R-413; experiment: cell-based; set-up: species or system HEK293-EPAC stably expressing H3R isoform; details: HEK293-EPAC stably expressing H3R isoform, read-out: H3R-413 α
H3R-413 [10] = molecular target: T6, H3R-413; experiment: cell-based; set-up: species or system HEK293-EPAC stably expressing H3R isoform
H3R-373 [11] = molecular target: T4, H3R-373
H3R-415 [12] = molecular target: T3, H3R-415; experiment: cell-based; set-up: species or system HEK293-EPAC stably expressing H3R isoform; details: HEK293-EPAC stably expressing H3R isoform, read-out: H3R-415 α
H3R-365 [13] = molecular target: T1, H3R-365; experiment: biochemical
H3R-445 [14] = molecular target: T5, H3R-445; experiment: biochemical; remark: listed apart in the source
H3R-413 [15] = molecular target: T6, H3R-413; experiment: biochemical; remark: listed apart in the source
H3R-373 [16] = molecular target: T4, H3R-373; details: […] Tris-HCl pH […] °C, […] h; labelled compound
H3R-365 [17] = molecular target: T1, H3R-365; experiment: biochemical; remark: listed apart in the source
H3R-453 [18] = molecular target: T2, H3R-453; details: […] Tris-HCl pH […] °C, […] h; labelled compound
H3R-415 [19] = molecular target: T3, H3R-415; experiment: biochemical; remark: listed apart in the source

Emax (H3R-365 [1]) [%] | Ki (H3R-453 [2]) [nM] | Ki (H3R-415 [3]) [nM] | Emax (H3R-373 [4]) [%] | Emax (H3R-453 [5]) [%] | Ki (H3R-445 [6]) [nM] | Ki (H3R-413 [7]) [nM] | Emax (H3R-445 [8]) [%] | Emax (H3R-413 [9]) [%] | EC50 (H3R-413 [10]) [nM] | Ki (H3R-373 [11]) [nM] | Emax (H3R-415 [12]) [%] | Ki (H3R-365 [13]) [nM] | SMILES | Kd (H3R-445 [14]) [nM] | Kd (H3R-413 [15]) [nM] | pKD (H3R-373 [16]) | Kd (H3R-365 [17]) [nM] | pKD (H3R-453 [18]) | Kd (H3R-415 [19]) [nM]
100 ± 30 | 3.16 | 3.98 | 70 ± 10 | 50 ± 10 | 2.51 | 3.98 | 60 ± 20 | 50 ± 10 | 6.31 | 1.58 | 50 ± 10 | 2 | NCCCCCc1c[nH]cn1 [impentamine, 5-(3H-imidazol-4-yl)pentan-1-amine] |  |  |  |  |  | 
 |  |  |  |  |  |  |  |  |  |  |  |  | CNCCc1c[nH]cn1 [[3H]NAMH] | 1.26 | 1.26 | 9.6 ± 0.1 | 0.501 | 9.0 ± 0.1 | 1.26
